Tests used:
rats [1] = assay: Gait and stance test; assay type: in vivo, rat; details: oral or intraperitoneal, 30 mg/kg
Experimental: (§1) Toxicity in mice and rats is assessed using three screens: the rotorod in mice, positional sense, and gait in rats. In mice, the test compound is administered at doses of 30, 100, and 300 mg/kg prior to evaluation in the toxicity screens. The mice are tested 0.5 hours and 4 hours after administration of the test compound. In rats, the test compound is administered at 30 mg/kg prior to the toxicity assessment. The rats are tested at 0.25, 0.5, 1, 2, and 4 hours after administration of the test compound.
In the gait and stance test, neurotoxicity is indicated by a circular or zigzag gait after administration of the test compound. In addition, ataxia, abnormal spread of the legs, abnormal posture, tremor hyperactivity, lack of exploratory behavior, somnolence, stupor, or catalepsy can indicate neurotoxicity. This toxicity test was conducted on 20 rats, weighing between 105 and 130 g.

[2] = system: MES-induced seizure spread (hindlimb tonic extension); assay: Maximal Electroshock Seizure (MES) test; assay type: in vivo, rat
Description: The MES is an experimental model for generalized tonic-clonic seizures that identifies compounds which prevent seizure spread. The MES model is highly reproducible and has a consistent endpoint. An advantage of this model is that the behavioral and electrographic seizures are consistent with those observed in humans (Levy, R. H., Antiepileptic drugs. 3rd Ed. 1989, New York: Raven Press. xxvii, 1025. p. 85-102).
In the MES test, the animal receives an electrical stimulus, 0.2 seconds in duration, via corneal electrodes primed with an electrolyte solution containing an anesthetic agent. The 0.2 second stimulation is generated with 150 mA in rats at 60 Hz. Twenty rats, weighing between 105 g and 130 g receive an electrical stimulus 15 minutes, 30 minutes, 1 hour, 2 hours, 4 hours, 8 hours and 12 hours after oral administration of a dose of about 30 mg/kg of agmatine in phosphate buffered in saline per kg of the animal. The test endpoint, electrogenic seizure, is manifested as hindlimb tonic extension.

rats [3] = assay: Positional sense test; assay type: in vivo, rat; details: oral or intraperitoneal, 30 mg/kg
Experimental: as §1
Behavioral toxicity in rats weighing between 105 and 130 g is assessed by the positional sense test. […] If the rat experiences neurological toxicity, it will not be able to quickly lift its leg back to a normal position.

mice = assay: Rotorod neurotoxicity test; assay type: in vivo, mouse; details: doses as high as 300 mg/kg
Experimental: as §1
Toxicity in mice weighing between 20.5 and 25.5 g is assessed using the standardized rotorod test (Dunham, M. S. and T. A. Miya, A note on a simple apparatus for detecting neurological deficit in rats and mice, J. Am. Pharm. Assoc. Sci. Edit (1957) 46:208-209). Control mice can maintain their equilibrium for an extended period of time when they are placed on a 6 rpm rotation rod. Neurologically impaired animals cannot maintain equilibrium for one minute in each of three successive trials.

NCCCCN=C(N)N [agmatine, 4-aminobutylguanidine]
neurotoxicity in gait and stance test (rats [1]): no neurotoxicity | rats protected from MES-induced seizure spread ([2]; intraperitoneal, 4 hours before electrical shock): 50% | rats protected from MES-induced seizure spread ([2]; oral 30 mg/kg, shock 0.25 hours after administration): 37.5% | rats protected from MES-induced seizure spread ([2]; oral 30 mg/kg, shock 0.5 hours after administration): 12.5% | rats protected from MES-induced seizure spread ([2]; oral 30 mg/kg, shock 2 hours after administration): 12.5% | rats protected from MES-induced seizure spread ([2]; oral 30 mg/kg, shock 4 hours after administration): 75% | rats protected from MES-induced seizure spread ([2]; oral 30 mg/kg, shock 6 hours after administration): 25% | neurotoxicity in positional sense test (rats [3]): no neurotoxicity | behavioral or neurotoxicity in rotorod test (mice): none of these animals showed any evidence of behavioral or neurotoxicity

From patent US7816407B2, “Agmatine and agmatine analogs in the treatment of epilepsy, seizure, and electroconvulsive disorders” (University of Kentucky Research Foundation, priority 2000, dated 2010)
